Assay results published in patent US8574563B2 (Bristol-Myers Squibb Company, priority 2006, dated 2013).

tested on: HCV 1b-377-neo replicon cells; assay: HCV replicon assay, HCV 1b-377-neo replicon cells (1b FRET); format: cell-based, Hepatitis C virus genotype 1b; details: HCV 1b-377-neo replicon cells; HCV 1b genotype; read-out: EC50 range against HCV 1b (Table 2, Range)
Method in brief: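 Compounds were tested in genotype 1b subgenomic replicon cells carrying a neomycin marker, alongside a matched replicon line with an NS5A Y2065H substitution that confers resistance to a reference NS5A inhibitor.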

| SMILES | EC50 |
| --- | --- |
| CCN(CC)[C@@H](C(=O)N1CCC[C@H]1c1ncc(-c2ccc(-c3ccc(-c4cnc([C@@H]5CCCN5C(=O)C5(NC(=O)OC)CCC5)[nH]4)cc3)cc2)[nH]1)c1ccccc1 [Example M41, methyl (1-(((2S)-2-(5-(4′-(2-((2S)-1-((2R)-2-(diethylamino)-2-phenylacetyl)-2-pyrrolidinyl)-1H-imidazol-5-yl)-4-biphenylyl)-1H-imidazol-2-yl)-1-pyrrolidinyl)carbonyl)cyclobutyl) carbamate] | 1000 to 99000 pM |

same assay, conditions: Hepatitis C virus, HCV 1b-377-neo replicon cells; HCV 1b genotype; read-out: EC50 range against HCV 1b (Table 2, Range)

| SMILES | EC50 |
| --- | --- |
| COC(=O)N[C@@H](C)C(=O)N1CCC[C@H]1c1ncc(-c2ccc(-c3ccc(-c4cnc([C@@H]5CCCN5C(=O)[C@@H](Nc5cccnc5)C(C)C)[nH]4)cc3)cc2)[nH]1 [cj-20a, methyl ((1S)-1-methyl-2-oxo-2-((2S)-2-(5-(4′-(2-((2S)-1-(N-3-pyridinyl-L-valyl)-2-pyrrolidinyl)-1H-imidazol-5-yl)-4-biphenylyl)-1H-imidazol-2-yl)-1-pyrrolidinyl)ethyl)carbamate] | 1 to 999 pM |
| CCC[C@H](NC(=O)OC)C(=O)N1CCC[C@H]1c1ncc(-c2ccc(-c3ccc(-c4cnc([C@@H]5CCCN5C(=O)[C@@H](c5ccccc5)N(CC)CC)[nH]4)cc3)cc2)[nH]1 [Example M62, methyl ((1S)-1-(((2S)-2-(5-(4′-(2-((2S)-1-((2R)-2-(diethylamino)-2-phenylacetyl)-2-pyrrolidinyl)-1H-imidazol-5-yl)-4-biphenylyl)-1H-imidazol-2-yl)-1-pyrrolidinyl)carbonyl)butyl)carbamate] | 1000 to 99000 pM |
| COC(=O)N[C@@H](C(=O)N1[C@@H]2C[C@@H]2C[C@H]1c1nc(-c2ccc(-c3ccc(-c4c[nH]c([C@@H]5C[C@H]6C[C@H]6N5C(=O)[C@H](NC(=O)OC)C(C)C)n4)cc3)cc2)c[nH]1)C(C)C [Example M136, methyl ((1R)-1-(((1R,3S,5R)-3-(4-(4′-(2-((1R,3S,5R)-2-((2R)-2-((methoxycarbonyl)amino)-3-methylbutanoyl)-2-azabicyclo[3.1.0]hex-3-yl)-1H-imidazol-4-yl)-4-biphenylyl)-1H-imidazol-2-yl)-2-azabicyclo[3.1.0]hex-2-yl)carbonyl)-2-methylpropyl)carbamate] | 1000 to 99000 pM |
| CCN(CC)[C@@H](C(=O)N1C[C@@H](O)C[C@H]1c1ncc(-c2ccc(-c3ccc(-c4cnc([C@@H]5C[C@H](O)CN5C(=O)[C@@H](c5ccccc5)N(CC)CC)[nH]4)cc3)cc2)[nH]1)c1ccccc1 [JG-7, (3S,5S,3′S,5′S)-5,5′-(4,4′-biphenyldiylbis(1H-imidazole-5,2-diyl))bis(1-((2R)-2-(diethylamino)-2-phenylacetyl)-3-pyrrolidinol)] | 1 to 999 pM |
| COC(=O)N[C@H](C(=O)N1CC2(CC2)C[C@H]1c1ncc(-c2ccc(-c3ccc(-c4cnc([C@@H]5CC6(CC6)CN5C(=O)[C@@H](NC(=O)OC)C(C)C)[nH]4)cc3)cc2)[nH]1)C(C)C [Example M145] | 1 to 999 pM |
| COC(=O)N[C@@H](C(=O)N1CCC[C@H]1c1ncc(-c2ccc(-c3ccc(-c4cnc([C@@H]5CCCN5C(=O)C5CCOCC5)[nH]4)cc3)cc2)[nH]1)c1ccccc1 [Example 45, methyl ((1R)-2-oxo-1-phenyl-2-((2S)-2-(5-(4′-(2-((2S)-1-(tetrahydro-2H-pyran-4-ylcarbonyl)-2-pyrrolidinyl)-1H-imidazol-5-yl)-4-biphenylyl)-1H-imidazol-2-yl)-1-pyrrolidinyl)ethyl)carbamate] | 1 to 999 pM |
| COC(=O)N[C@@H](C(=O)N1CCC[C@H]1c1ncc(-c2ccc(-c3ccc(-c4cnc([C@@H]5CCCN5C(=O)Cc5cccnc5)[nH]4)cc3C)cc2)[nH]1)c1ccccc1 [Example 127, methyl ((1R)-2-((2S)-2-(5-(2′-methyl-4′-(2-((2S)-1-(3-pyridinylacetyl)-2-pyrrolidinyl)-1H-imidazol-5-yl)-4-biphenylyl)-1H-imidazol-2-yl)-1-pyrrolidinyl)-2-oxo-1-phenylethyl)carbamate] | 1 to 999 pM |
| CN(C)[C@@H](C(=O)N1C[C@@H](F)C[C@H]1c1ncc(-c2ccc(-c3ccc(-c4cnc([C@@H]5C[C@H](F)CN5C(=O)[C@@H](c5ccccc5)N(C)C)[nH]4)cc3)cc2)[nH]1)c1ccccc1 [Example 24-5] | 1 to 999 pM |
| COC(=O)N[C@@H](C(=O)N1CCC[C@H]1c1ncc(-c2ccc(-c3ccc(-c4cnc([C@@H]5CCCN5C(=O)[C@@H](c5ccccc5)N(C)C)[nH]4)cc3C)c(C)c2)[nH]1)c1ccccc1 [Example 129, methyl ((1R)-2-((2S)-2-(5-(4′-(2-((2S)-1-((2R)-2-(dimethylamino)-2-phenylacetyl)-2-pyrrolidinyl)-1H-imidazol-5-yl)-2,2′-dimethyl-4-biphenylyl)-1H-imidazol-2-yl)-1-pyrrolidinyl)-2-oxo-1-phenylethyl)carbamate] | 1 to 999 pM |
| CCN(CC)[C@H](C)C(=O)N1CCC[C@H]1c1ncc(-c2ccc(-c3ccc(-c4cnc([C@@H]5CCCN5C(=O)[C@@H](NC(=O)OC)C(C)C)[nH]4)cc3)cc2F)[nH]1 [Example D43, methyl ((1S)-1-(((2S)-2-(5-(4′-(2-((2S)-1-(N,N-diethyl-D-alanyl)-2-pyrrolidinyl)-1H-imidazol-5-yl)-3′-fluoro-4-biphenylyl)-1H-imidazol-2-yl)-1-pyrrolidinyl)carbonyl)-2-methylpropyl) carbamate] | 1 to 999 pM |
| C[C@@H](C(=O)N1CCC[C@H]1c1ncc(-c2ccc(-c3ccc(-c4cnc([C@@H]5CCCN5C(=O)[C@@H](c5ccccc5)N5CCCC5)[nH]4)cc3)cc2)[nH]1)N(C)C [Example 103, (2S)-N,N-dimethyl-1-oxo-1-((2S)-2-(5-(4′-(2-((2S)-1-((2R)-2-phenyl-2-(1-pyrrolidinyl)acetyl)-2-pyrrolidinyl)-1H-imidazol-5-yl)-4-biphenylyl)-1H-imidazol-2-yl)-1-pyrrolidinyl)-2-propanamine] | 1 to 999 pM |
| COC(=O)N[C@@H](C(=O)N1CCC[C@H]1c1ncc(-c2ccc(-c3ccc(-c4cnc([C@@H]5CCCN5C(=O)[C@H](NC(=O)OC)c5ccccc5)[nH]4)cc3C)cc2)[nH]1)c1ccccc1 [Example 124, dimethyl ((2-methyl-4,4′-biphenyldiyl)bis(1H-imidazole-5,2-diyl(2S)-2,1-pyrrolidinediyl((1R)-2-oxo-1-phenyl-2,1-ethanediyl)))biscarbamate] | 1 to 999 pM |
| O=C([C@@H](c1ccccc1)N1CCCCC1)N1CCC[C@H]1c1ncc(-c2ccc(-c3ccc(-c4cnc([C@@H]5CCCN5C(=O)C5(C(F)(F)F)CC5)[nH]4)cc3)cc2)[nH]1 [Example 107-15, 1-((1R)-2-oxo-1-phenyl-2-((2S)-2-(5-(4′-(2-((2S)-1-((1-(trifluoromethyl)cyclopropyl)carbonyl)-2-pyrrolidinyl)-1H-imidazol-5-yl)-4-biphenylyl)-1H-imidazol-2-yl)-1-pyrrolidinyl)ethyl)piperidine] | 1 to 999 pM |
| O=C([C@@H]1CCCO1)N1CCC[C@H]1c1ncc(-c2ccc(-c3ccc(-c4cnc([C@@H]5CCCN5C(=O)[C@@H](c5ccccc5)N5CCCC5)[nH]4)cc3)cc2)[nH]1 [Example 95, 2-((2S)-1-((2R)-2-phenyl-2-(1-pyrrolidinyl)acetyl)-2-pyrrolidinyl)-5-(4′-(2-((2S)-1-((2S)-tetrahydro-2-furanylcarbonyl)-2-pyrrolidinyl)-1H-imidazol-5-yl)-4-biphenylyl)-1H-imidazole] | 1 to 999 pM |
| COC(=O)N[C@@H](C(=O)N1CCC[C@H]1c1ncc(-c2ccc(-c3ccc(-c4cnc([C@@H]5CCCN5C(=O)[C@@H](c5ccccc5)N5CCC(C)(O)CC5)[nH]4)cc3)cc2)[nH]1)c1ccccc1 [Example 84-4, methyl ((1R)-2-((2S)-2-(5-(4′-(2-((2S)-1-((2R)-2-(4-hydroxy-4-methyl-1-piperidinyl)-2-phenylacetyl)-2-pyrrolidinyl)-1H-imidazol-5-yl)-4-biphenylyl)-1H-imidazol-2-yl)-1-pyrrolidinyl)-2-oxo-1-phenylethyl)carbamate] | 1 to 999 pM |
| COC(=O)N[C@@H](C)C(=O)N1CCC[C@H]1c1nc(-c2cnc(-c3ccc(-c4cnc([C@@H]5CCCN5C(=O)[C@H](C)NC(=O)OC)[nH]4)cc3)nc2)c[nH]1 [Example D73, methyl ((1S)-2-((2S)-2-(5-(4-(5-(2-((2S)-1-(N-(methoxycarbonyl)-L-alanyl)-2-pyrrolidinyl)-1H-imidazol-5-yl)-2-pyrimidinyl)phenyl)-1H-imidazol-2-yl)-1-pyrrolidinyl)-1-methyl-2-oxoethyl)carbamate] | 1 to 999 pM |
| COC(=O)N[C@@H](C(=O)N1[C@@H]2C[C@@H]2C[C@H]1c1nc(-c2ccc(-c3ccc(-c4c[nH]c([C@@H]5C[C@H]6C[C@H]6N5C(=O)[C@H](NC(=O)OC)c5ccccc5)n4)cc3)cc2)c[nH]1)c1ccccc1 [Example M137, dimethyl (4,4′-biphenyl-diylbis(1H-imidazole-4,2-diyl(1R,3S,5R)-2-azabicyclo[3.1.0]hexane-3,2-diyl((1R)-2-oxo-1-phenyl-2,1-ethanediyl)))biscarbamate] | 1 to 999 pM |
| CN(C)[C@@H](C(=O)N1CCC[C@H]1c1ncc(-c2ccc(-c3ccc(-c4cnc([C@@H]5CCCN5C(=O)Cc5cccc6ccccc56)[nH]4)cc3)cc2)[nH]1)c1ccccc1 [Example 94-49, (1R)-N,N-dimethyl-2-((2S)-2-(5-(4′-(2-((2S)-1-(1-naphthylacetyl)-2-pyrrolidinyl)-1H-imidazol-5-yl)-4-biphenylyl)-1H-imidazol-2-yl)-1-pyrrolidinyl)-2-oxo-1-phenylethanamine] | 1 to 999 pM |
| C[C@H]1CC[C@@H](c2nc(-c3ccc(-c4ccc(-c5c[nH]c([C@@H]6CC[C@H](C)N6C(=O)Cc6ccccc6)n5)cc4)cc3)c[nH]2)N1C(=O)Cc1ccccc1 [Example M159, 4,4′-(4,4′-biphenyldiyl)bis(2-((2S,5S)-5-methyl-1-(phenylacetyl)-2-pyrrolidinyl)-1H-imidazole)] | 1 to 999 pM |
